{"source": "patent US20170226133A1", "about": "“Gold (I)-Phosphine Compounds as Anti-Bacterial Agents” (Auspherix Limited, priority 2014, published 2017)", "key": {"[1]": {"system": "chinese hamster ovary cells (CHO)", "assay": "CHO toxicity assay (CCK-8 cell viability)", "assay_type": "cell-based", "details": "50% growth inhibition, 24 hours", "procedure": "Cell counting kit-8 (Sigma, CCK-8) assays were performed to assess the effect of compounds on cell viability. The assay is based on the reduction of a water-soluble tetrazolium salt (WST-8) by cellular dehydrogenases to a formazan dye which can be detected spectroscopically. 96-well plates were seeded with chinese hamster ovary cells (CHO) cells at 7×10^3 cells per well in Dulbecco's modified Eagle's medium nutrient mixture F-12 Ham (containing 15 mM HEPES, NaHCO3, pyridoxine and L-glutamine) supplemented with 10% fetal bovine serum (FBS). The following day serial dilutions of compounds (dissolved and diluted in DMSO) were added to the cells in duplicates. Control included an ‘untreated’ control where cells were grown in the presence of 1% DMSO and a medium only control (plus 1% DMSO). After 24 hours CCK-8 reagent (10 μl) was added to each well and cell viability was assessed by measuring the absorbance at a wavelength of 450 nm after 2.5-3 hours. Only living cells can reduce the tetrazolium salts into coloured formazan products. Results were expressed as 50% growth inhibition (TD50) values compared to ‘untreated’ control.\nThe therapeutic index was calculated as the ratio of the dose that produces growth inhibition in 50% of CHO cells divided by the dose where 50% of S. aureus growth is inhibited."}, "[2]": {"system": "human hepatocyte cell line (HepG2)", "assay": "HepG2 cell inhibition assay (CCK-8 cell viability)", "assay_type": "cell-based", "details": "50% growth inhibition, 24 hours", "procedure": "Cell counting kit-8 (Sigma, CCK-8) assays were performed to assess the effect of compounds on cell viability. The assay is based on the reduction of a water-soluble tetrazolium salt (WST-8) by cellular dehydrogenases to a formazan dye which can be detected spectroscopically. 96-well plates were seeded with the human hepatocyte cell line (HepG2) at approximately 8×10^3 cells per well in Minimum Essential Medium Eagle (EMEM) with Earle's salts and sodium bicarbonate supplemented with 10% heat-inactivated foetal bovine serum 2 mM glutamine and 1% non-essential amino acids (NEAA). The following day serial dilutions of compounds (dissolved and diluted in DMSO) were added to the cells in duplicates. Control included an ‘untreated’ control where cells were grown in the presence of 1% DMSO and a medium only control (plus 1% DMSO). After 24 hours CCK-8 reagent (10 μl) was added to each well and cell viability was assessed by measuring the absorbance at a wavelength of 450 nm after 2-3 h hours. Only living cells can reduce the tetrazolium salts into coloured formazan products. Results were expressed as 50% growth inhibition (TD50) values compared to ‘untreated’ control. The therapeutic index was calculated as the ratio of the dose that produces growth inhibition in 50% of HepG2 cells divided by the dose where 50% of S. aureus or E. coli growth is inhibited."}, "[3]": {"system": "S. aureus NCTC 8325 biofilm", "assay": "Preformed S. aureus biofilm assay (crystal violet)", "assay_type": "cell-based, Staphylococcus aureus", "details": "S. aureus NCTC 8325, 24 hours preformed biofilm, 24 hours exposure", "procedure": "The effect of a test compound on the formation of a S. aureus biofilm may be assessed using a biofilm prevention assay as described by Merritt et al. Current Protocols in Microbiology, 2011, 1B.1.1-1B1.18 with slight modifications. Briefly, S. aureus NCTC 8325, MRSA (RPAH18) and MRSA (MW2) are grown overnight in Tryptic soy broth (TSB) and diluted to between 1/50 and 1/100 before 150 μL is added to the wells of a flat bottomed 96-well plate. Three microliters of auranofin at the appropriate dilution in DMSO are added to the wells in duplicate. Controls included a serial dilution of lincomycin in ethanol (to assess plate to plate variation), a positive control with bacteria alone in TSB with 2% DMSO and a negative (no bacteria) control with 150 μL TSB containing 2% DMSO. Plates are sealed with AeraSeal™ and incubated at 37° C. for 24 hours. The plates are then washed three times with PBS, dried at 60° C. for 1 hour and stained with crystal violet for 1 hour. The plates are again washed three times with water, dried and scanned prior to the addition of 33% acetic acid to re-solubilize the crystal violet stain bound to the adherent cells. Absorbance is then measured at 595 nm and expressed as a percentage of the bacteria only control.\nThe effect of a test compound on preformed S. aureus biofilms can also be assessed. Briefly S. aureus NCTC 8325 is plated in 96-well plates as described in above and incubated 37° C. for 24 hours. Biofilms are then washed 3 times with TSB and 150 μL of fresh TSB and 3 μL of auranofin at the appropriate dilution in DMSO was added to the wells in duplicate. Plates are again sealed with AeraSeal™ and reincubated 37° C. for 24 hours. Biofilm is then detected as described above."}, "G. mellonella larvae": {"system": "G. mellonella larvae", "assay": "Galleria mellonella model, toxicity of compound alone", "assay_type": "in vivo", "details": "uninfected larvae", "procedure": "(§1) G. mellonella larvae at 5th or 6th instar stage were purchased from a commercial supplier and used within 3 days. Prior to infection larvae were kept at room temperature. Larvae were infected with bacteria (various Gram positive and negative bacteria, including S. aureus, K. pneumoniae, E. coli and P. aeruginosa) using a sterile Hamilton syringe. Bacteria cultures were grown overnight, washed ×3 in PBS and resuspended in PBS. Larvae were wiped with 70% ethanol and 10 μl of bacteria solution (to cause 80% death within 3-4 days) was injected into the bottom right proleg of the larvae. Larvae injected with 10 μl of PBS were used as negative controls. Larvae were then placed in petri dishes (1 dish per condition) containing filter paper at the bottom of the dish at 37° C. After various time points post infection (1-6 h), larvae were taken from the incubator wiped again with 70% ethanol and injected with 10 μl of various concentrations of compound, dissolved in either 5% dimethyl sulfoxide, 5% ethanol or 5% 1-methyl-2-pyrrolidinone into a proleg on the left hand-side. Control larvae received 10 μl of 5% solvent. Ten larvae were injected for each condition. To assess the toxicity of the compound, larvae were injected with various concentrations of compound alone. Larvae were returned to a 37° C. incubator and checked daily. Larvae were considered dead when no movement occurred when touched with a blunt pair of forceps. […] Numbers of dead larvae were recorded each day.\nSurvival Proportions Following Dosing with 10 μl of Compound 8 Solutions of Varying Strengths"}, "[4]": {"system": "S. aureus infection of G. mellonella larvae", "assay": "Galleria mellonella model, efficacy after S. aureus infection", "assay_type": "in vivo", "details": "S. aureus infected larvae", "procedure": "as §1, with “daily.” for “daily. Larvae were considered dead when no movement occurred when touched with a blunt pair of forceps.”, “day. […]” for “day.”"}}, "data": [{"compound": "C[P](C)(C)=[Au][S]c1nc2ccccc2[nH]1", "note": "[Compound 1]", "values": [{"measurement": "CHO cell TD50", "setting": "[1]", "value": 3.2, "unit": "µg/mL"}, {"measurement": "HepG2 cell TD50", "setting": "[2]", "value": 4, "unit": "µg/mL"}]}, {"compound": "COC(=O)[C@H](C[S][Au]=[P](C)(C)C)NC(C)=O", "note": "[Compound 2]", "values": [{"measurement": "CHO cell TD50", "setting": "[1]", "value": 6.4, "unit": "µg/mL"}, {"measurement": "HepG2 cell TD50", "setting": "[2]", "value": 11, "unit": "µg/mL"}, {"measurement": "effect on preformed S. aureus biofilm", "setting": "[3]", "value": "disrupted the biofilm"}]}, {"compound": "C[P](C)(C)=[Au][S]c1nc2ncccc2o1", "note": "[Compound 3]", "values": [{"measurement": "CHO cell TD50", "setting": "[1]", "value": 5.0, "unit": "µg/mL"}, {"measurement": "HepG2 cell TD50", "setting": "[2]", "value": 9, "unit": "µg/mL"}, {"measurement": "effect on preformed S. aureus biofilm", "setting": "[3]", "value": "disrupted the biofilm"}]}, {"compound": "CC(=O)N[C@@H](C[S][Au]=[P](C)(C)C)C(N)=O", "note": "[Compound 4]", "values": [{"measurement": "HepG2 cell TD50", "setting": "[2]", "value": 22, "unit": "µg/mL"}, {"measurement": "effect on preformed S. aureus biofilm", "setting": "[3]", "value": "disrupted the biofilm"}]}, {"compound": "C[P](C)(C)=[Au][S]c1nc2cccnc2[nH]1", "note": "[Compound 7]", "values": [{"measurement": "HepG2 cell TD50", "setting": "[2]", "value": 12.5, "unit": "µg/mL"}, {"measurement": "effect on preformed S. aureus biofilm", "setting": "[3]", "value": "disrupted the biofilm"}]}, {"compound": "CCOC(=O)[C@H](C[S][Au]=[P](C)(C)C)NC(C)=O", "note": "[Compound 8]", "values": [{"measurement": "HepG2 cell TD50", "setting": "[2]", "value": 9.5, "unit": "µg/mL"}, {"measurement": "Survival proportions", "setting": "G. mellonella larvae; 3.75 mg/kg, Day 1", "value": 100}, {"measurement": "Survival proportions", "setting": "G. mellonella larvae; 3.75 mg/kg, Day 2", "value": 100}, {"measurement": "Survival proportions", "setting": "G. mellonella larvae; 3.75 mg/kg, Day 3", "value": 100}, {"measurement": "Survival proportions", "setting": "G. mellonella larvae; 3.75 mg/kg, Day 4", "value": 100}, {"measurement": "Survival proportions", "setting": "G. mellonella larvae; 7.5 mg/kg, Day 1", "value": 100}, {"measurement": "Survival proportions", "setting": "G. mellonella larvae; 7.5 mg/kg, Day 2", "value": 100}, {"measurement": "Survival proportions", "setting": "G. mellonella larvae; 7.5 mg/kg, Day 3", "value": 100}, {"measurement": "Survival proportions", "setting": "G. mellonella larvae; 7.5 mg/kg, Day 4", "value": 100}, {"measurement": "Survival proportions", "setting": "G. mellonella larvae; 15 mg/kg, Day 1", "value": 100}, {"measurement": "Survival proportions", "setting": "G. mellonella larvae; 15 mg/kg, Day 2", "value": 100}, {"measurement": "Survival proportions", "setting": "G. mellonella larvae; 15 mg/kg, Day 3", "value": 100}, {"measurement": "Survival proportions", "setting": "G. mellonella larvae; 15 mg/kg, Day 4", "value": 100}, {"measurement": "Survival proportions", "setting": "G. mellonella larvae; 30 mg/kg, Day 1", "value": 100}, {"measurement": "Survival proportions", "setting": "G. mellonella larvae; 30 mg/kg, Day 2", "value": 90}, {"measurement": "Survival proportions", "setting": "G. mellonella larvae; 30 mg/kg, Day 3", "value": 90}, {"measurement": "Survival proportions", "setting": "G. mellonella larvae; 30 mg/kg, Day 4", "value": 90}, {"measurement": "Survival proportions", "setting": "G. mellonella larvae; 60 mg/kg, Day 1", "value": 100}, {"measurement": "Survival proportions", "setting": "G. mellonella larvae; 60 mg/kg, Day 2", "value": 80}, {"measurement": "Survival proportions", "setting": "G. mellonella larvae; 60 mg/kg, Day 3", "value": 60}, {"measurement": "Survival proportions", "setting": "G. mellonella larvae; 60 mg/kg, Day 4", "value": 50}, {"measurement": "mean survival rates", "setting": "[4]; 2 mg/kg (p=0.02)", "value": "significantly increased"}, {"measurement": "mean survival rates", "setting": "[4]; 4 mg/kg (p=0.04)", "value": "significantly increased"}, {"measurement": "effect on preformed S. aureus biofilm", "setting": "[3]", "value": "disrupted the biofilm"}]}, {"compound": "C[P](C)(C)=[Au][S]c1ccccc1", "note": "[Compound 10]", "values": [{"measurement": "HepG2 cell TD50", "setting": "[2]", "value": 2, "unit": "µg/mL"}, {"measurement": "effect on preformed S. aureus biofilm", "setting": "[3]", "value": "disrupted the biofilm"}]}, {"compound": "C[P](C)(C)=[Au][S]c1ccccn1", "note": "[Compound 11]", "values": [{"measurement": "HepG2 cell TD50", "setting": "[2]", "value": 4.5, "unit": "µg/mL"}, {"measurement": "effect on preformed S. aureus biofilm", "setting": "[3]", "value": "disrupted the biofilm"}]}, {"compound": "C[P](C)(C)=[Au][S]c1ncccn1", "note": "[Compound 12]", "values": [{"measurement": "HepG2 cell TD50", "setting": "[2]", "value": 4.5, "unit": "µg/mL"}, {"measurement": "effect on preformed S. aureus biofilm", "setting": "[3]", "value": "disrupted the biofilm"}]}, {"compound": "CN1CCC([S][Au]=[P](C)(C)C)CC1", "note": "[Compound 13]", "values": [{"measurement": "HepG2 cell TD50", "setting": "[2]", "value": 15, "unit": "µg/mL"}]}, {"compound": "C[P](C)(C)=[Au][S]c1nc2ncccc2s1", "note": "[Compound 14]", "values": [{"measurement": "HepG2 cell TD50", "setting": "[2]", "value": 7, "unit": "µg/mL"}, {"measurement": "effect on preformed S. aureus biofilm", "setting": "[3]", "value": "disrupted the biofilm"}]}, {"compound": "C[P](C)(C)=[Au][S][C@H]1CC[C@H](O)CC1", "note": "[Compound 15]", "values": [{"measurement": "HepG2 cell TD50", "setting": "[2]", "value": 4.5, "unit": "µg/mL"}, {"measurement": "effect on preformed S. aureus biofilm", "setting": "[3]", "value": "disrupted the biofilm"}]}, {"compound": "C[P](C)(C)=[Au][S]C1CCOCC1", "note": "[Compound 16]", "values": [{"measurement": "HepG2 cell TD50", "setting": "[2]", "value": 4.5, "unit": "µg/mL"}]}, {"compound": "CCOC(=O)[C@H](C[Se][Au]=[P](C)(C)C)NC(C)=O", "note": "[Compound 18]", "values": [{"measurement": "HepG2 cell TD50", "setting": "[2]", "value": ">50", "unit": "µg/mL"}]}, {"compound": "C[P](C)(C)=[Au][S]c1cccnc1", "note": "[Compound 19]", "values": [{"measurement": "HepG2 cell TD50", "setting": "[2]", "value": 3, "unit": "µg/mL"}]}]}
